# From patent US20240253988A1, “PROCESS FOR THE PRODUCTION OF HYDROGEN PEROXIDE” (ARKEMA FRANCE, priority 2021, published 2024)
# Legend:
# [1] = Specific gravity, hydrometer ASTM-D891; type: physicochemical
# Description: The organic solvent according to the present invention may have a specific gravity equal to or lower than 0.95, and preferably equal to or lower than 0.94. According to preferred embodiments, the organic solvent according to the present invention may have a specific gravity from 0.89 to 0.95, and preferably from 0.90 to 0.94. Specific gravity can be determined by means of a hydrometer according to ASTM-D891.
# Specific gravity can be determined by means of a hydrometer according to ASTMD891.
# [2] = Vapor pressure, ebulliometry ASTM-E1719; type: physicochemical
# Protocol: Furthermore, the solvent of formula (I) may have a vapor pressure equal to or lower than 450 Pa, preferably equal to or lower than 400 Pa, and more preferably equal to or lower 350 Pa at 20° C. For example, the solvent of formula (I) may have a vapor pressure equal to or lower than 450 Pa, or equal to or lower than 400 Pa, or equal to or lower than 350 Pa, or equal to or lower than 300 Pa, or equal to or lower than 250 Pa, or equal to or lower than 200 Pa, or equal to or lower than 250 Pa, or equal to or lower than 200 Pa, or equal to or lower than 150 Pa, or equal to or lower than 100 Pa, at 20° C. Vapor pressure can be determined by ebulliometry according to ASTM-E1719.
# Vapor pressure can be determined by ebulliometry according to ASTM-E1719.
# [3] = Flash point, closed-cup apparatus ASTM-D3278; type: physicochemical
# Protocol: According to preferred embodiments, the organic solvent according to the present invention may have a flash point higher than 60° C., preferably higher than 62.5° C. and more preferably higher than 65° C. Flash point can be determined by closed-cup apparatus according to ASTM-D3278.
# Flash point can be determined by closed-cup apparatus according to ASTM-D3278.
# [4] = Water solubility, coulometric Karl Fischer titration ASTM-D6304; type: physicochemical
# Protocol: According to some preferred embodiments, the organic solvent is not soluble (or essentially not soluble) in water, and preferably has a water solubility equal to or lower than 200 mg/kg, preferably equal to or lower than 190 mg/kg, and more preferably equal to or lower than […]. Water solubility can be determined by coulometric Karl Fischer titration according to ASTM-D6304.
# Water solubility can be determined by coulometric Karl Fischer titration according to ASTM-D6304.
# [5] = type: physicochemical
# Protocol: The solubility of 2-ethylanthraquinone (2-EAQ) was measured in four different solvents. Solvents A to C are according to the invention, while solvent D is a comparative solvent: • Solvent A: 1-ethyl-4-methoxybenzene • Solvent B: 2,6-dimethylanisole • Solvent C: phenylpropylether • Solvent D: 1,3,5-trimethylbenzene
# Solubilities were determined by equilibrating the 2-ethylanthraquinone with the solvent in a glass flask shaken in a carefully temperature controlled atmosphere. Analysis of the samples was done by liquid chromatography. Reference mixtures were prepared for calibration.
# The solubility is measured at a temperature of 20° C.
SMILES,Specific gravity [1],Vapor Pressure [2] [Pa],Flashpoint [3],Water solubility [4] [mg/kg],2-EAQ solubility [5]
"COc1ccccc1 [Anisole (*), Anisole, reference compound]",0.995,490,49-52 °C,1728,
"CCc1ccc(OC)cc1 [Solvent A, 1-ethyl-4-methoxybenzene]",0.944,67,68-72 °C,90,229 g/kg of solvent
"COc1c(C)cccc1C [Solvent B, 2,6-dimethylanisole]",0.943,124,61-67 °C,114,226 g/kg of solvent
"CCCOc1ccccc1 [Solvent C, phenylpropylether]",0.946,60,64-65 °C,141,229 g/kg of solvent
"Cc1cc(C)cc(C)c1 [Solvent D, 1,3,5-trimethylbenzene, reference compound]",,,,,210 g/kg of solvent
